Experimental findings from ChEMBL document CHEMBL1155132, “Synthesis and structure-activity relationship of 1H-indole-3-carboxylic acid pyridine-3-ylamides: a novel series of 5-HT2C receptor antagonists” (Bioorg Med Chem Lett, 2008) are described below.

Structures are written as SMILES.

In one assay the target is T1, D(4) dopamine receptor (Homo sapiens, UniProt P21917).
T1 sequence (P21917 whole entry): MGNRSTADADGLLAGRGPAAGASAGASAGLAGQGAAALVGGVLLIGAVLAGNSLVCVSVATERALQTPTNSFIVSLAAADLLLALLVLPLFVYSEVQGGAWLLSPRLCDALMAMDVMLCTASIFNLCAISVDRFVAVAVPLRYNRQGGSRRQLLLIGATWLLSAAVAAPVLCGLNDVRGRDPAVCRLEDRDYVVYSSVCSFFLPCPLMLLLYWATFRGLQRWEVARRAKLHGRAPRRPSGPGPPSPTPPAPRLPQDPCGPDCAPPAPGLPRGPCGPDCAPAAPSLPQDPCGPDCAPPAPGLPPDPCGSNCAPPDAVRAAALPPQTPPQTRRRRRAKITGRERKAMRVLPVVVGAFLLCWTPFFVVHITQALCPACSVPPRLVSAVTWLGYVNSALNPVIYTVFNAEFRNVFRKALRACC
Nature of the assay: Displacement of [3H]spiperone from human cloned dopamine D4 receptor. For orientation: Displacement assays read how much labelled ligand stays bound in the presence of the test substance.

Assay [1] deals with T2, 5-hydroxytryptamine receptor 2C (Homo sapiens, UniProt P28335).
T2 sequence (P28335 whole entry): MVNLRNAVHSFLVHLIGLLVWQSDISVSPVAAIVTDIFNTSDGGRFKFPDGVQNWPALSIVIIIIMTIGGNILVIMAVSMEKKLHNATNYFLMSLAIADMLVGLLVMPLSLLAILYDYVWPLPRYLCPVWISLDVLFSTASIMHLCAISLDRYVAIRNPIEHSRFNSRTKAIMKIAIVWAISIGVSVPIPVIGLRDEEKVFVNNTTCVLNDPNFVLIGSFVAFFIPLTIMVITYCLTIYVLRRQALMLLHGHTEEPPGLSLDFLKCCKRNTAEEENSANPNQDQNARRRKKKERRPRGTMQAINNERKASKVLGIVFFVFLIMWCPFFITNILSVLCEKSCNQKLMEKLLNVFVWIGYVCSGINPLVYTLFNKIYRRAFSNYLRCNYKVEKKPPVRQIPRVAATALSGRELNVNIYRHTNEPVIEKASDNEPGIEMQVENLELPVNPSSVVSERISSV
The assay can be described thus: Displacement of [3H]mesulergine at human cloned 5HT2C receptor expressed in CHOK1 cell. In kind it is cell-based, CHO-K1.

For assay [2], the target named is T3, 5-hydroxytryptamine receptor 1A (Homo sapiens, UniProt P08908).
T3 sequence (P08908 whole entry): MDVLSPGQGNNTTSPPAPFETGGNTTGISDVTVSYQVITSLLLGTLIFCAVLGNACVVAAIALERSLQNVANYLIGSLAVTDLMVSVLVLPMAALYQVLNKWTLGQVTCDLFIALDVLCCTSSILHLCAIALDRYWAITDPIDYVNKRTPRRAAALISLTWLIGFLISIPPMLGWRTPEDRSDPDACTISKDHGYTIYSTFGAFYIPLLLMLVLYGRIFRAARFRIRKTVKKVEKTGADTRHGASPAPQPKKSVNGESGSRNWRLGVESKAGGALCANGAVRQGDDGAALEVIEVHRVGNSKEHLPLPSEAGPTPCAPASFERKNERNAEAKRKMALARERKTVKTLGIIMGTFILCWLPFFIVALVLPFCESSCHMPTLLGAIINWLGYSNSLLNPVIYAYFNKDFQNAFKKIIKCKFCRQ
The assay can be described thus: Displacement of [3H]8-OH-DPAT from human cloned 5HT1A receptor.

For assay [3], the target named is 5-hydroxytryptamine receptor 2A (Homo sapiens, UniProt P28223). Nature of the assay: Displacement of [3H]ketanserin from human cloned 5HT2A receptor.
Chain of 5-hydroxytryptamine receptor 2A (P28223 whole entry): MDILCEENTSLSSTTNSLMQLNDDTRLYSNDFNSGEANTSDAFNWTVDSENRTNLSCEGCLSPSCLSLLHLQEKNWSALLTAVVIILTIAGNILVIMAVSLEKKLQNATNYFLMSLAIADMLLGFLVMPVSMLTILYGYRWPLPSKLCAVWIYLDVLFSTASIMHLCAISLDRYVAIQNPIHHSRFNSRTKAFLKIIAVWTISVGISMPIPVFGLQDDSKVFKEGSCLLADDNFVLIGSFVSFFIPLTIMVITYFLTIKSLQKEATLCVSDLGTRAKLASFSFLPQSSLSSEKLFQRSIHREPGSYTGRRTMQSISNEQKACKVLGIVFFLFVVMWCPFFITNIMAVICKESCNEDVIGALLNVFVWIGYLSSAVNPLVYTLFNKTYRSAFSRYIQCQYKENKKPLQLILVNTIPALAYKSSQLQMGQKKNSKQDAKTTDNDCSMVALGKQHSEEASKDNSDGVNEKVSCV
For assay [4], the target named is 5-hydroxytryptamine receptor 6 (Homo sapiens, UniProt P50406). The assay can be described thus: Displacement of [3H]LSD from human cloned 5HT6 receptor.
Chain of 5-hydroxytryptamine receptor 6 (P50406 whole entry): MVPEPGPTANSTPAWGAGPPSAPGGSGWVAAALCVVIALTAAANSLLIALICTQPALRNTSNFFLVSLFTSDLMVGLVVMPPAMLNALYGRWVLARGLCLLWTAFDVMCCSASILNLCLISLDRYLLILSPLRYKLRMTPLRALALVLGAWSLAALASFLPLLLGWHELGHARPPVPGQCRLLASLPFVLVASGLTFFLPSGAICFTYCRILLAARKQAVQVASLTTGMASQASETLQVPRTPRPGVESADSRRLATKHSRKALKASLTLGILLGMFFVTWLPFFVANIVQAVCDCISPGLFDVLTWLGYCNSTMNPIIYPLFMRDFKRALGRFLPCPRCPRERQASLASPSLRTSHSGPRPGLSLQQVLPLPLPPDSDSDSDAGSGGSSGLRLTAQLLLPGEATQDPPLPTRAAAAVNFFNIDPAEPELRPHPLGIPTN
For assay [5], the target named is 5-hydroxytryptamine receptor 7 (Homo sapiens, UniProt P34969). Nature of the assay: Displacement of [3H]LSD from human cloned 5HT7 receptor.
Chain of 5-hydroxytryptamine receptor 7 (P34969 whole entry): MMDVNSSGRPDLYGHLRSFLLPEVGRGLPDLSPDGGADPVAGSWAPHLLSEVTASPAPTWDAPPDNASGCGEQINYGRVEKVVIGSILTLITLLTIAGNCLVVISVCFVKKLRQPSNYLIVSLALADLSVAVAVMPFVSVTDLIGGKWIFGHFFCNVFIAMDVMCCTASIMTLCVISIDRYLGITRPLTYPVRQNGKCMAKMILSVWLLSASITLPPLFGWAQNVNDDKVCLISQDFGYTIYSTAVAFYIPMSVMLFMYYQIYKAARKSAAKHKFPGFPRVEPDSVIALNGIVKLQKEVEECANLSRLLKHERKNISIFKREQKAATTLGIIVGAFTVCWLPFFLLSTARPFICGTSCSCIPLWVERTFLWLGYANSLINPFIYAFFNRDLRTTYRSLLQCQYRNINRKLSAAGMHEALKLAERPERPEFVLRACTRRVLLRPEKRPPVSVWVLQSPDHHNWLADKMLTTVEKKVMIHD
The next assay concerns the target D(2) dopamine receptor (Homo sapiens, UniProt P14416). The assay can be described thus: Displacement of [3H]spiperone from human cloned dopamine D2 receptor.
The target of another assay is D(3) dopamine receptor (Homo sapiens, UniProt P35462). Nature of the assay: Displacement of [3H]spiperone from human cloned dopamine D3 receptor.
Chain of D(3) dopamine receptor (P35462 whole entry): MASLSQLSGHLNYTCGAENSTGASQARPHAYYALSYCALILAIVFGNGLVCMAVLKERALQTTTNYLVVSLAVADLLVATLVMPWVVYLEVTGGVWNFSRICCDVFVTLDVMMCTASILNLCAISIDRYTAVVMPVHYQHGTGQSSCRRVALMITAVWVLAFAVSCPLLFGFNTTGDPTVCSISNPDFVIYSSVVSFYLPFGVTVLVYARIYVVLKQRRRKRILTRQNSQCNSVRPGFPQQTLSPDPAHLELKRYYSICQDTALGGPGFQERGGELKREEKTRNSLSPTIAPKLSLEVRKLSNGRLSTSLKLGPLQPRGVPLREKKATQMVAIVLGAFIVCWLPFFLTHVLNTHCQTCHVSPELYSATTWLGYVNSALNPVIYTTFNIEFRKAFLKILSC

Chain of D(2) dopamine receptor (P14416 whole entry): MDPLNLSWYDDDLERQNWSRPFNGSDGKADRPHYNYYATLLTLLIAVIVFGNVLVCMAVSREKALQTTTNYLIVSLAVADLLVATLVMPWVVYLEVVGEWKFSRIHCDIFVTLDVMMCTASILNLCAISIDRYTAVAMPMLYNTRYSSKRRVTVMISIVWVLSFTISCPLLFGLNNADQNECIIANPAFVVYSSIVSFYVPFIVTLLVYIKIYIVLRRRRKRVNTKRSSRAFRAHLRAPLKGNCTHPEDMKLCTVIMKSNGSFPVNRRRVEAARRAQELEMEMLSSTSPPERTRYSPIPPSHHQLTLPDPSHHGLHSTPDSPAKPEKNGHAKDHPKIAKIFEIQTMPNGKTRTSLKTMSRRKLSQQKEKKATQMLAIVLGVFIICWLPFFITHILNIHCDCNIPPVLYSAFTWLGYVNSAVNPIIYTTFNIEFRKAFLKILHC

Regarding `Cc1cc2c(cc1C(F)(F)F)N(C(=O)Nc1ccc(Oc3cccnc3C)nc1)CC2` [SB-243213], the IC50 on D(4) dopamine receptor is over 1 µM.
On to `O=C(Nc1ccc(Oc2cccnc2Cl)nc1)c1c[nH]c2ccccc12`, for which, at D(4) dopamine receptor, the IC50 is over 10 µM.
Compound `O=C(Nc1cccnc1)c1c[nH]c2ccccc12` came in with an IC50 in assay [1] of over 10 µM.
As for `O=C(Nc1ccc(Oc2cccnc2)nc1)c1c[nH]c2ccccc12`, the IC50 is over 10 µM in assay [2]; over 1 µM in assay [3]; over 10 µM in assay [4]; over 10 µM in assay [5]; over 10 µM on D(2) dopamine receptor; over 10 µM at D(3) dopamine receptor. Besides, the half-inhibitory concentration (IC50) at D(4) dopamine receptor was over 10 µM.
In assay [1], `Cc1ncccc1Oc1ccc(NC(=O)c2cc3ccccc3[nH]2)cn1` yielded an IC50 of 0.059 µM.
`O=C(Nc1ccc(OCc2ccccn2)nc1)c1c[nH]c2ccccc12` had an IC50 in assay [1] of 0.006 µM.

For orientation: IC50 means the concentration that inhibits the measured activity by half.
